From ChEMBL document CHEMBL1201862, “PubChem BioAssay data set” (2004)
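Interpolation was linear, between the two tested concentrations surrounding the appropriate level; five concentrations were tested over 48 hours in 96-well plates. GI50 = concentration required for 50% inhibition of growth.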 Active and inactive are the calls of the source. Cut-off read from the data, not from the text of the source: active = GI50 up to about 1.1 µM and inactive = higher.

How the values were obtained:
Experiment in all cases: NCI-60 cell line screen, 48 h
CCRF-CEM = test system: CCRF-CEM
KM12 = test system: KM12
SF-268 = test system: SF-268
PC-3 = test system: PC-3
SK-OV-3 = test system: SK-OV-3
U-251 = test system: U-251
786-0 = test system: 786-0
SR = test system: SR
A549 = test system: A549
SK-MEL-2 = test system: SK-MEL-2
TK-10 = test system: TK-10
NCI/ADR-RES = test system: NCI/ADR-RES
SNB-19 = test system: SNB-19
RPMI-8226 = test system: RPMI-8226
MDA-N = test system: MDA-N
MCF7 = test system: MCF7
UACC-257 = test system: UACC-257
DU-145 = test system: DU-145
OVCAR-4 = test system: OVCAR-4
HOP-62 = test system: HOP-62
HOP-92 = test system: HOP-92
SK-MEL-28 = test system: SK-MEL-28
MDA-MB-231 = test system: MDA-MB-231
OVCAR-8 = test system: OVCAR-8
SNB-75 = test system: SNB-75
UACC-62 = test system: UACC-62
SF-295 = test system: SF-295
SK-MEL-5 = test system: SK-MEL-5
Hs-578T = test system: Hs-578T
K562 = test system: K562
HCC 2998 = test system: HCC 2998
A498 = test system: A498
MDA-MB-435 = test system: MDA-MB-435
SW-620 = test system: SW-620
M14 = test system: M14
EKVX = test system: EKVX
NCI-H460 = test system: NCI-H460
HT-29 = test system: HT-29
NCI-H23 = test system: NCI-H23
MOLT-4 = test system: MOLT-4
UO-31 = test system: UO-31
CAKI-1 = test system: CAKI-1
T47D = test system: T47D
COLO 205 = test system: COLO 205
OVCAR-3 = test system: OVCAR-3
OVCAR-5 = test system: OVCAR-5
LOX IMVI = test system: LOX IMVI
IGROV-1 = test system: IGROV-1
HL-60 = test system: HL-60
Malme-3M = test system: Malme-3M
NCI-H522 = test system: NCI-H522
ACHN = test system: ACHN
SN12C = test system: SN12C
BT-549 = test system: BT-549
HCT-15 = test system: HCT-15

Measured: GI50

Cc1cc(C)nc(NS(=O)(=O)c2ccc(Nc3c4ccccc4nc4c(C(=O)NC(CO)(CO)CO)cccc34)cc2)n1
52 µM: HCT-15
inactive: CCRF-CEM 16.1 µM | KM12 17.9 µM | SF-268 29.5 µM | PC-3 35.6 µM | SK-OV-3 31.9 µM | U-251 24.8 µM | 786-0 29 µM | SR 23.2 µM | A549 27.5 µM | SK-MEL-2 20.8 µM | TK-10 31.3 µM | NCI/ADR-RES > 100 µM | SNB-19 25.4 µM | RPMI-8226 22.8 µM | MDA-N 24.1 µM | MCF7 25.8 µM | UACC-257 42 µM | DU-145 55 µM | OVCAR-4 45.9 µM | HOP-62 26.7 µM | HOP-92 23.6 µM | SK-MEL-28 27.1 µM | MDA-MB-231 32.1 µM | OVCAR-8 39.3 µM | SNB-75 5.65 µM | UACC-62 31.3 µM | SF-295 30.8 µM | SK-MEL-5 20.6 µM | Hs-578T 38.4 µM | K562 31.4 µM | HCC 2998 16 µM | A498 31.3 µM | MDA-MB-435 24.9 µM | SW-620 38.5 µM | M14 37.2 µM | EKVX 69 µM | NCI-H460 15.8 µM | HT-29 28.1 µM | NCI-H23 33.7 µM | MOLT-4 6.1 µM | UO-31 85.1 µM | CAKI-1 89.3 µM | T47D 37.8 µM | COLO 205 20.1 µM | OVCAR-3 29.3 µM | OVCAR-5 31.5 µM | LOX IMVI 17.3 µM | IGROV-1 40.1 µM | HL-60 31.6 µM | Malme-3M > 10 µM | NCI-H522 13.9 µM | ACHN 34 µM | SN12C 29.6 µM | BT-549 21.8 µM
